In article PMC6697583 (Cancer research, 2019):

Biological target: T1, heme oxygenase 1 (HO-1) (Homo sapiens, UniProt P09601)
T1 sequence (P09601 1-288): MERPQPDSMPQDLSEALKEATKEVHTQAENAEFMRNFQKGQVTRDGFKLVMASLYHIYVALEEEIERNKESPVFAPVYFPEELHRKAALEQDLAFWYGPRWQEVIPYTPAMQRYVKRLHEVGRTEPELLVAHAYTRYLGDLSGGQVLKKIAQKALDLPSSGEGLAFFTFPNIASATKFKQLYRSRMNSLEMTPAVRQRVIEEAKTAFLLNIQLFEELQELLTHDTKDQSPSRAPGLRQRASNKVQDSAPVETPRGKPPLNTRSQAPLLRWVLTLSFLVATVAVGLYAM
Assay: bilirubin fluorescence assay on purified HO-1
Format: biochemical

IC50: 17.6 nM
SMILES: Cc1c(O)ccc2c1OC[C@@H](c1ccc(O)cc1)[C@H]2c1ccc(O)cc1 [ME-344, (3R,4S)-3,4-bis(4-hydroxyphenyl)-8-methyl-3,4-dihydro-2H-chromen-7-ol]
